Assay results: a melting point compilation (Tetko et al.; mined from patent text by program, amines drawn as free bases though some values may be those of a salt)

| melting point [°C] | Structure (SMILES) |
| --- | --- |
| 226 to 227 | Cc1nnc(-c2ccc3occ(-c4ccc(O)cc4)c3c2)o1 |
| 90 | CC(=O)N(C#N)C1(c2ccc(OCc3ccc4ccccc4n3)cc2)CCCCC1 |
| 177 to 179 | C=CCOC(=O)Nc1ccc(N2CCN(N3C=NN(CC(C)(O)c4ccc(Cl)cc4Cl)C3)CC2)cc1 (configuration not stated) |
| 202 | O=C(Cc1cccc(Br)c1)Nc1cccc(C(=O)NCCO)c1 |
| 177 to 179 | COc1ccc2c(c1)Sc1ccc(F)cc1C(N1CCN(CCN3CCOC3=O)CC1)C2 (configuration not stated) |
| 185 | CNc1nn(C(=O)Cl)c(=O)n1C |
| 302 to 304 | CCn1cc(C(=O)O)c(=O)c2cc(F)c(N3CCC(CNC(C)C)C3)nc21 (configuration not stated) |
| 37 | CCCCc1ccc(-c2ccc(-c3ccc(CC)cc3)cc2F)s1 |
| 118 to 119 | Nc1c(Cl)cc(Cl)n2nc(SCc3ccccc3)nc12 |
| 165 | C=CCOc1ccc2ccc(=O)oc2c1 |
| 90 to 91 | CCOC(=O)c1c(C(F)(F)F)oc(C(F)(F)F)c(C(=O)OCC)c1=O |
| 246 to 248 | COc1ccc2c(c1)CCc1cc(=O)[nH]nc1-2 |
| 148 | O=C1CCCN1c1ccc(N2C[C@H](CO)OC2=O)cc1 |
| 114 to 116 | CCOC(=O)Nn1cccc1C(=O)c1ccc(Cl)cc1Cl |
| 115 to 117 | CCc1nn(CCO)c(CC)c1Cc1cc(C#N)cc(C#N)c1 |
| 232 to 233 | O=C(c1ccccc1)c1ncc2n1CCC2C(=O)O (configuration not stated) |
| 254 to 256 | COc1cc(C(=O)O)ccc1Cn1ncc2ccc(NC(=O)CC3CCCC3)cc21 |
| 120 to 125 | CC1CC(C)CN(C(=O)c2ccc([N+](=O)[O-])cc2)C1 (configuration not stated) |
| 170 | Cc1nc2n(c(=O)c1CCN1CCN(c3noc4c(C)cccc34)CC1)CCCS2 |
| 299 to 300 | CC(C)(C)Nc1c(NCc2cc3cc(C#N)ccc3o2)c(=O)c1=O |
| 131 to 132 | CN1CCN(Cc2cc(C(=O)c3ccc(Cl)cc3)cc(C(C)(C)C)c2O)CC1 |
| 197 to 200 | CC(=O)N1CCc2cc(-c3ccc4c(c3)CC[C@H]3N(C)C(=O)CC[C@]43C)ccc21 |
| 155 to 156 | COc1cc(NN)c(F)cc1C#N |
| 117 to 118 | CCCCCCCCCCCCc1ccc(S(=O)(=O)Nc2nnc(C(C)(C)C)s2)cc1 |
| 149 to 151 | CC(=O)Nc1cc(C(F)(F)F)ccc1S(=O)CC#N (configuration not stated) |

| melting point [°C] | Structure (SMILES) |
| --- | --- |
| 159 to 160 | CCCCNC(=O)NCCCn1c(CCOC)nc2c(N)nc3ccccc3c21 |
| 214 to 216 | C=CCN(c1nc(-c2cc3ccccc3[nH]c2=O)cs1)S(=O)(=O)c1ccccc1 |
| 69 to 70 | Cc1c(Cc2cccnc2)sc2cc(Br)ccc12 |
| 135 | CCCC(Br)c1nc2ccccc2n1Cc1ccc(C#N)cc1 (configuration not stated) |
| 155 to 157 | O=C(Nc1ccc(F)cc1)NS(=O)(=O)C1CCCC1 |
| 63 to 63.5 | CCOCCOC(=O)C1=C(C)N(COCC)C(C)=C(C(=O)OCCOCC)C1c1cccc([N+](=O)[O-])c1 |
| 289 to 291 | CS(=O)(=O)c1ccc(-c2c(-c3ccc(F)cc3)nn3c(-c4ccc(F)cc4)coc23)cc1 |
| 147 to 148 | CCOc1ccc(C(=O)CBr)cc1C(=O)OC |
| 94 to 98 | Cc1cccc(C(=O)Nc2cccc(C(F)(F)F)c2)c1NCc1ccncc1 |
| 156 to 157 | CCCNc1nc(C)nc2c1nnn2-c1ccc(C(C)C)cc1Br |
| 278 | COC(=O)c1cc(C(=O)c2c(C)c(NC(=O)c3cccc(O)c3)c3ccccn23)ccc1N |
| 185 to 187 | O=C1Nc2cccc(-c3ccc(Cl)cc3Cl)c2/C1=C/c1ccc[nH]1 |
| 196 to 197 | CCS1(N2CCN(c3ccccc3OC)CC2)C(C)=C(C)c2c1[nH]c(=O)[nH]c2=O (configuration not stated) |
| 152 | CCCCOc1cc(C=C[N+](=O)[O-])c([N+](=O)[O-])cc1OCc1ccccc1 |
| 167 to 168 | O=C(CSCCOc1ccccc1)c1ccc2[nH]c3ncc(Cl)cc3c2c1 |
| 124 | COc1ccc2c(c1C=O)OCO2 |
| 129 to 132 | CCOC(=O)C(Cc1ccccc1[N+](=O)[O-])(NC=O)C(=O)OCC |
| 160 to 167 | COc1cccc(CNc2nccc(-c3cc(N4CCN(CCCN5CCCC5)CC4)c4cc(OC)ccc4c3)n2)c1 |
| 149 to 150 | COC(=O)CCn1c(=O)n(CCN2CCN(c3ccccc3C)CC2)c(=O)c2cscc21 |
| 90 to 104 | CCC(N)=C(C(C)=O)c1[nH]c2ccccc2c1C(O)CN(C)C (configuration not stated) |
| 207 to 208 | CC(C(N)=O)c1ccc2c(c1)C(=O)Cc1ccc(Cl)cc1S2 (configuration not stated) |
| 156 to 157 | O=C1CNC(=O)N1Cc1ccc2ccn(C3CCN(CCc4ccc(F)cc4)CC3)c2c1 |
| 106 to 108 | Cc1noc(-c2cccc(CN3CCN(c4ccc(N)cc4)CC3)c2)n1 |
| 211 to 212 | CCc1[nH]c2ccc(OC)cc2c1C=O |
| 141 to 143 | COCc1ncnc(O)c1OC |

| melting point [°C] | Structure (SMILES) |
| --- | --- |
| 168 to 170 | COc1cc(OC)nc(NC(=O)NS(=O)(=O)C(C)c2ccccc2[N+](=O)[O-])n1 (configuration not stated) |
| 102 to 103 | CCOC(=O)/C(N)=C/C(=O)/C=C/c1ccc(Cl)cc1F |
| 55 to 56 | CCCCn1c(=O)c2c(ncn2S(=O)(=O)CC23CCC(CC2=O)C3(C)C)n(CCCC)c1=O (configuration not stated) |
| 165 to 167 | COc1ccc(N(C(C)=O)C2=NN(c3ccc([N+](=O)[O-])cc3)C(=O)C2)cc1 |
| 200 to 202 | CCCc1nc2c(N)nc3ccccc3c2n1CCCC1(O)CCCCC1 |
| 178 to 180 | COc1c(C)cnc(CSc2nc3ncc(O)cc3[nH]2)c1C |
| 85 to 86 | C=Cc1ccccc1OC(C)C(=O)N1CCCC1 (configuration not stated) |
| > 260 | O=C1CCC(N2C(=O)c3cccc(CNC(=O)Nc4ccccn4)c3C2=O)C(=O)N1 (configuration not stated) |
| 149 to 151 | Nc1c(C(=O)c2cc(F)cc(F)c2)[nH]c2cc(Cl)ccc12 |
| 116 to 117 | O=S(=O)(c1ncc(Cl)cn1)c1cccs1 |
| 117 to 119 | N#Cc1cc(C(=O)c2ccccc2)ccc1[N+](=O)[O-] |
| > 230 | CCCCn1c(=O)n(C2OC(CO)C(O)C2O)c2nc(N)[nH]c(=O)c21 (configuration not stated) |
| 126 | CC12CC3CC(C1)CC(CC(O)C(c1cccc(Cl)c1)n1ccnc1)(C3)C2 (configuration not stated) |
| 124 to 127 | C#Cc1cc(Nc2ncnc3cnc(NC(=O)CP(=O)(OCC)OCC)cc23)ccc1Cl |
| 193 to 197 | CCCCc1nc(Cl)c(CO)n1Cc1ccc2oc(-c3ccccc3-c3nnn[nH]3)c(Br)c2c1 |
| 197 to 200 | COc1ccc2c(c1)OCCC(C(=O)O)=C2 |
| 179 to 180 | CN(C)NC(=O)c1sc(Nc2ccccc2)c2c1CCc1cnoc1-2 |
| 174 to 176 | NC(=O)CN1CCC(c2nn(-c3ccc(C(F)(F)F)cc3)c3cc(F)ccc23)CC1 |
| 232 to 234 | CCCCOC(=O)c1ccc(N2CCN(CCCS(=O)(=O)O)CC2)cc1 |
| 149 to 151 | Cc1c(C)c2c(c(C)c1O)CCC(C)(C#N)O2 (configuration not stated) |
| 155 | NS(=O)(=O)c1cccc(C2(O)CCCC2)c1 |
| 46 | CC1(C)CCC(C)(C)C1OS(C)(=O)=O |
| 208 | CC(=O)OCC(=O)C1C(C)CC2C3CC(Cl)C4=CC(=O)C=CC4(C)C3C(O)CC21C (configuration not stated) |
| 117 to 119 | COc1cc(C(=O)N(C(C)C)C2CCCCC2)ccc1Cn1c(CO)nc2ncccc21 |
| 143 | CCOP(=O)(OCC)C(CNC=NNC(=O)c1nc2ccccc2[nH]1)P(=O)(OCC)OCC |

| melting point [°C] | Structure (SMILES) |
| --- | --- |
| 187 to 189 | c1ccc(C(CCOc2ccc(Cc3nnn[nH]3)cc2)(c2ccccc2)c2ccccc2)cc1 |
| 146 to 147 | CC1(C)OCC(Cc2ccc(C=Cc3ccc([N+](=O)[O-])cc3)cc2)O1 (configuration not stated) |
| 156 to 157 | O=C(Oc1ccccc1)c1cc2cccc(O)c2[nH]1 |
| 128 to 130 | CCOC(=O)c1cc(O)c(-c2ccccc2)c([N+](=O)[O-])c1 |
| 108 to 110 | CCCCn1c(S)nnc1C(=O)O |
| 232 to 233 | Cc1c(S(=O)(=O)N(O)C(=N)Nc2ccc(Cl)c(Cl)c2)sc2ccc(Cl)cc12 |
| 192 to 193 | COc1nc(C(C)(C)O)cnc1NS(=O)(=O)c1cccc(Cl)c1Cl |
| 39 to 41 | COC(=O)CCC(=O)OCc1cc(CCCCCOc2c(Cl)cc(C3=NCCO3)cc2Cl)on1 |
| 78 to 80 | O=C(C=C(c1ccccc1)c1ccccc1)NCCCCc1cccnc1 |
| 159 | c1ccc(-c2nc3ccc(Cn4ccnc4)cc3nc2-c2ccccc2)cc1 |
| 205 | O=C1COC(c2cccc(Cl)c2)c2cc(C3(c4ccc(Cl)cc4)OCCO3)ccc2N1 (configuration not stated) |
| > 250 | N#CNC(=S)Nc1ccccc1 |
| 117 to 120 | CN=C(NC#N)NCCCSCc1nsc(NC(=N)N)n1 |
| 49 to 51 | COc1nc(N2CCN(C(=O)c3ccccc3C(F)(F)F)CC2)ccc1C(=O)NCCC1CC1 |
| 134 to 137 | COC(=O)c1ccc(Cl)cc1NC(=O)CSc1ccc([N+](=O)[O-])cc1 |
| 153 to 155 | NC(=O)N(O)CCNC(=O)COc1cccc(Oc2ccccc2)c1 |
| 134 | CCNC(=S)NC1CC(C)(C)NC(C)(C)C1 |
| 142 to 144 | FC(F)(F)c1sc(S)nc1Cl |
| 269 to 271 | COc1cc(Nc2nccc(-c3sc(N)nc3C)n2)cc(OC)c1 |
| 157 to 158 | O=C(O)CCC(c1cc(F)ccc1F)S(=O)(=O)c1ccc(Cl)cc1 (configuration not stated) |
| 94 to 96 | CCn1ncnc1COc1nc2c(-c3ccccc3)nnc(C)n2c1C1CCCC1 |
| 96 to 98 | CCOC(=O)COc1ccc(Cn2c(-c3ccc(OC4CCCC4)cc3)c(C)c3cc(OCc4ccccc4)ccc32)cc1 |
| 127 to 129 | FC(F)(F)CSc1nc2cc(Cl)ccc2[nH]1 |

| Structure (SMILES) | melting point [°C] |
| --- | --- |
| CC(=O)Nc1ccc2c(c1)CC(=O)N2CCN1CCN(Cc2ccccc2)CC1 | 145 to 147 |
| CCOC[C@@H]1[C@H](c2ccc(Cl)c(Cl)c2)C[C@H]2CC[C@@H]1N2C | 52.5 to 54.5 |
| CC(C)P1(=O)c2ccccc2CN1Cc1ccccc1 (configuration not stated) | 145 to 147 |
| O=C1c2c(Cl)cccc2-n2cnc(-c3cnco3)c2[C@@H]2CCCN12 | 201 to 202 |
